Test results published in PMC10307035, “Antiviral activity of singlet oxygen-photogenerating perylene compounds against SARS-CoV-2: Interaction with the viral envelope and photodynamic virion inactivation” (Virus Research, 2023).

Legend:
[1] = test system: SARS-CoV-2 (Wuhan variant); assay: Viral membrane interaction study (virus pre-treatment at 37 °C or 4 °C); assay type: cell-based; settings: 10 µM; for virus' viability after pre-treatment at 4 °C (assay B): 1 h at 4 °C; for virus' ability to form plaques after pre-treatment at 37 °C (assay A): 1 h at 37 °C
[2] = test system: SARS-CoV-2 (Wuhan variant); assay: Quantification of viral RNA synthesis by RT-qPCR; assay type: cell-based; settings: 10 µM, Vero cells, 48 h
[3] = test system: SARS-CoV-2 (Wuhan variant); assay: Fusion assay; settings: for reduction in plaque numbers (fusion assay): 1 and 10 µM, compounds added after virus attachment at 4 °C, then 37 °C

| SMILES | virus' viability after pre-treatment at 4 °C (assay B) [1] | virus' ability to form plaques after pre-treatment at 37 °C (assay A) [1] | synthesis of viral genomic RNA [2] | reduction in plaque numbers (fusion assay) [3] | cytotoxicity to Vero cells in the fusion assay ([3]; 10 µM) |
| --- | --- | --- | --- | --- | --- |
| CC(C)(C)C(=O)OCn1c(=O)c(C#Cc2ccc3c4cccc5cccc(c6cccc2c63)c54)cn(CC(=O)N(CCO)CCO)c1=O [Compound 13] | partially restored | completely inhibited | suppressed the synthesis of viral genomic RNA | statistically significant reduction in plaque numbers | – |
| O=C(NCCCCO)c1ccc(-c2ccc3c4cccc5cccc(c6cccc2c63)c54)s1 [Compound 17] | partially restored | completely inhibited | suppressed the synthesis of viral genomic RNA | statistically significant reduction in plaque numbers | observable cytotoxicity |
| O=c1[nH]c(=O)n([C@H]2C[C@H](O)[C@@H](CO)O2)cc1C#Cc1ccc2c3cccc4cccc(c5cccc1c52)c43 [Compound 2, 5-(perylen-3-yl)ethynyl-2′-deoxy-uridine] | partially restored | completely inhibited | suppressed the synthesis of viral genomic RNA | significantly decreased plaque counts only at 10 µM | – |
